Test results from patent US20230255934A1, “NURR1 RECEPTOR MODULATORS AND USES THEREOF” (The Regents of the University of California, priority 2020, published 2023).
Changes are numbered by the printed parent chain. Like-named read-outs stand apart in the source and are kept apart here.

What was measured:
[1] = test system: MN9D cells; assay: CytoTox-Glo cytotoxicity assay; type: cell-based; settings: 24 h treatment, 10 μM unless stated
Method: Cytotoxicity assays were carried out using the CytoTox-Glo Cytotoxicity Assay Kit (Promega) according to the manufacturer's instructions. Briefly, MN9D cells were resuspended in DMEM/F-12 with 5% FBS at 2·10^5 cells/ml and added to an equal volume of two-fold concentrated compound in the same media containing 0.2% DMSO (prepared by diluting DMSO stock of the compound in warm DMEM/F-12 with 5% FBS; for DMSO control equivalent volume of DMSO was used instead of the compound stock), and immediately re-plated onto poly-D-lysine pre-treated 96-well white-walled flat clear bottom plate (Corning cat #3903) at a density of 1·10^4 cells/well (100 μL/well), 3 replicas per compound. As a background (BG) control, for each of the compound (or DMSO) equivalent volume of compound mixed with DMEM/F-12+5% FBS was plated. After 24 h treatment at 37° C., in 5% C02 incubator, 50 μL of CytoTox-Glo™ Cytotoxicity Assay Reagent was added to each well, mixed briefly by orbital shaking and incubated for 15 min at ambient temperature. Luminescence signal corresponding to dead cells was measured using Biotek Synergy H4 hybrid microplate reader. After the measurement, 50 μL of Lysis Reagent was added to each well, mixed, incubated for 15 min at ambient temperature, and total luminescence was measured. The percentage of viable cells was then calculated as follows: Percent Viable Cells (%)=100% (Total cell luminescence (test compound)—Dead cell luminescence (test compound))/(Total cell luminescence (DMSO)—Dead cell luminescence (DMSO)).

[2] = Chemical stability in solution; type: physicochemical; settings: observed during data acquisition
[3] = biological target: T1, Nurr1 LBD (wildtype) (Homo sapiens, UniProt P43354); assay: Microscale thermophoresis (MST) binding to wildtype Nurr1 LBD; settings: for Binding to the Nurr1 LBD (in words): MST; for Amplitude: Table 1, MST amplitude, WT; for Response Amplitude: Table 2, MST, Wildtype
T1 construct: made in house
Method: (§1) Concentration-dependent association of the indoles with the Nurr1 LBD was carried out using microscale thermophoresis. Stock solutions (10 mM in DMSO) of each indole were serially diluted (200 μM indole, 0.5× dilutions down to 0.0061 μM) in MST buffer (25 mM HEPES, pH 7.4, 150 mM NaCl, and 0.1% Pluronic F127) containing 2% DMSO. The dilutions were carried out with 4% DMSO in the MST buffer for a total of 16 concentrations. Equivalent volumes and concentrations of the fluorescently labeled Nurr1 LBD in MST buffer were added to each ligand dilution in the series to reach a final concentration of 75 nM labeled protein. After incubating for 20 minutes, the samples were loaded into Monolith NT.115 Capillaries (Nanotemper).
(§2) Data were collected using the Monolith NT.115 System (Nanotemper), with settings for all samples at 40% excitation power and 40% MST power. The initial fluorescence was recorded for 3 sec and the thermophoresis fluorescence response was recorded for 20 sec. The data was inspected with Palmist software^5, and data points affected by initial fluorescence quenching or photobleaching were eliminated. The fluorescent response for each sample was normalized to the initial fluorescence using Palmist software to provide the values of thermophoresis (Fn). The resulting data was used to generate a plot of the change in thermophoresis (Fn-Fn0, where Fn=thermophoresis and Fn0=thermophoresis response in unbound range) versus concentration of the ligand. GraphPad Prism v. 8.3.0 software was used to fit the resulting data to a mass action equation for a specific binding with Hill slope, solving for KD: Fn-Fn0═Fmax·[L]^n/(KD^n+[L]^n), where Fmax=maximum amplitude of thermophoresis, [L]=concentration of the ligand at a specific point, KD=dissociation constant, nH=Hill Coefficient.
To investigate the potential impact of compound nano-aggregation on binding affinity, we used dynamic light scattering to inspect the aggregation of 5-chlorindole in solution and repeated the MST binding experiments in the presence of increasing concentrations of the surfactant Pluoronic F127 (FIGS. 12A-12D). […] As well, increasing concentrations of the surfactant Pluronic F127 had small effects (<2-fold) on the affinity of 5-chloroindole for the Nurr1 LBD (FIGS. 12A-12D).

[4] = biological target: T2, Nurr1 LBD His516Ala (Homo sapiens, UniProt P43354, H516A); assay: MST binding to His516Ala mutant Nurr1 LBD; settings: for Amplitude (% change) / KD (% change): Table 1, H516 relative to WT; for Amplitude: Table 1, MST amplitude, H516; for Response Amplitude: Table 2, MST, His516Ala
T2 construct: Mutants of LAP2 Nurr1 were prepared by GenScript starting from LAP2 Nurr1 vector; made in house
Method: (§3) The plasmid used for the expression of LAP2-tagged Nurr1 LBDs (LAP2 Nurr1) was prepared by GenScript (Piscataway, N.J.) as the product of gene synthesis and subcloning into pET-21a(+) Vector (GenScript) using the Ndel and Xhol sites within the MCS. Mutants of LAP2 Nurr1 were prepared by GenScript starting from LAP2 Nurr1 vector.
as §1, §2

[5] = biological target: T3, Nurr1 LBD Arg563Ala (Homo sapiens, UniProt P43354, R563A); assay: MST binding to Arg563Ala mutant Nurr1 LBD; settings: for Amplitude: Table 1, MST amplitude, R563A; for Amplitude (% change) / KD (% change): Table 1, R563A relative to WT; for Response Amplitude: Table 2, MST, Arg563Ala
T3 construct: Mutants of LAP2 Nurr1 were prepared by GenScript starting from LAP2 Nurr1 vector; made in house
T3 sequence (P43354 with tags, fused parts or gaps R563A): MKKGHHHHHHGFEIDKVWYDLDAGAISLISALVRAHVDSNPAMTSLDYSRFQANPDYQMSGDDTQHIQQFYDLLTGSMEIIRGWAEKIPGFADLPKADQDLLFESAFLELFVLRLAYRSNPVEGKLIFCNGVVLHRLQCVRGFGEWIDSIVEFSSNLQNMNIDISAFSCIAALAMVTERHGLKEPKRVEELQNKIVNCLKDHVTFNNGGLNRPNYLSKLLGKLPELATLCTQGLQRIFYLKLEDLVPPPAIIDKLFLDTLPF
Method: as §3, §1, §2

[6] = biological target: T4, Nurr1 LBD Arg563Ala + His516Ala (Homo sapiens, UniProt P43354, H516A/R563A); assay: MST binding to Arg563Ala + His516Ala double mutant Nurr1 LBD; settings: for Amplitude (% change) / KD (% change): Table 1, H516A/R563A relative to WT; for Amplitude: Table 1, MST amplitude, H516A/R563A; for Response Amplitude: Table 2, MST, Arg563Ala + His516Ala
T4 construct: Mutants of LAP2 Nurr1 were prepared by GenScript starting from LAP2 Nurr1 vector; made in house
T4 sequence (P43354 with tags, fused parts or gaps H516A/R563A): T3 sequence (P43354 with tags, fused parts or gaps R563A) with H180A
Method: as §3, §1, §2

[7] = test system: Nurr1 target genes Th and Vmat2 in MN9D cells; assay: Target gene transcription assay (qPCR) in MN9D cells; type: cell-based, mouse
Method: Target Gene Transcription Assays. These assays were carried out using standard protocols. MN9D TET-ON frozen cell stocks (P5) were thawed and grown for 60-72 h on poly-D-lysine pre-treated culture dishes (100 mm) in Dulbecco's Modified Eagle Medium/Nutrient Mixture F-12 (DMEM/F-12; Gibco) supplemented with 5% Tet System Approved FBS (Takara Bio USA) at 37° C., 5% C02 to ˜80% confluency. The resulting cells were then trypsinized with 0.25% Trypsin-EDTA (Gibko) and diluted to 2·10^5 cells/ml with fresh medium. The resulting cell suspension (0.8 mL) was added to 2× concentrated compound in the same medium containing 0.2% DMSO (0.8 mL) in an Eppendorf tube. The cell suspension with compound or vehicle (DMSO) was then seeded onto a 24-well plate pre-treated with Poly-D-Lysine at 0.8 mL per well. Assays were performed under conditions of basal Nurr1 expression, without induction of additional Nurr1 expression using doxycycline.
After 24 h, total RNA was extracted the cells in each well using the Quick-RNA MiniPrep Plus Kit (Zymo Research), according to the manufacturer's instructions. The cDNA was then synthesized from 1000 ng of purified RNA using High-Capacity cDNA Reverse Transcription Kit (Applied Biosystems) and used as template. The qPCR as performed using iTaq Universal SYBR Green Supermix (BioRad) and CFX96 Real-Time Detection System machine (BioRad). Briefly, qPCR was performed in hard-shell 96-well PCR plates (BioRad) using cDNA corresponding to 8.75 ng of starting total RNA in a volume of 15 μl, containing 7.5 μl of SYBR Green Supermix, and 1 μL of 10 μM forward and reverse primers. Cycling parameters for qPCR included an initial denaturation at 95° C. for 3 min, followed by 40 cycles of 95° C. for 5 s and annealing at 56° C. for 30 s. The forward and reverse primers (Table 4) were ordered from IDT. Gene expression was quantified by the comparative2-ΔΔCt method, with the mouse housekeeping gene hypoxanthine-guanine phosphoribosyltransferase (Hprt) used as internal reference to determine the relative mRNA expression. Transcript levels for target genes were normalized to the housekeeping gene Hprt and fold change was compared to gene expression levels from vehicle (DMSO) only treated cells. GraphPad Prism 8 software was used for statistical analysis. Two-way ANOVA was applied for DMSO fold change vs compound. Results are from three independent experiments. Relative average expression±SD; *p<0.05, **p<0.01, ***p<0.001, ****p<0.0001 by ANOVA in comparison expression with 0 μM compound (DMSO only).

[8] = Table 1, Nurr1 variant WT, read-out: KD
[9] = Table 2, Wildtype, read-out: Affinity (KD)
[10] = Table 1, Nurr1 variant H516, read-out: KD
[11] = Table 2, His516Ala, read-out: Affinity (KD)
[12] = Table 1, Nurr1 variant R563A, read-out: KD
[13] = Table 2, Arg563Ala, read-out: Affinity (KD)
[14] = Table 1, Nurr1 variant H516A/R563A, read-out: KD
[15] = Table 2, Arg563Ala + His516Ala, read-out: Affinity (KD)

T1 sequence (P43354 with tags, fused parts or gaps): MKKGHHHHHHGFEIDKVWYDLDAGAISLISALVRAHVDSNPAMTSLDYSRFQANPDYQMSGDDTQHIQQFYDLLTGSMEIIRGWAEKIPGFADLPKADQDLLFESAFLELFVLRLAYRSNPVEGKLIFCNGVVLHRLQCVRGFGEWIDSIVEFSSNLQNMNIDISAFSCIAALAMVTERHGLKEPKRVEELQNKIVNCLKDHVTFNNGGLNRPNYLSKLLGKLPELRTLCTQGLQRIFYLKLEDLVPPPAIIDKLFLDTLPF
T2 sequence (P43354 with tags, fused parts or gaps H516A): as the sequence (P43354 with tags, fused parts or gaps) above, with H180A counted along it

Binding to the Nurr1 LBD (in words) [3] | Amplitude [3] | Kd [3, 8] [µM] | Response Amplitude [3] | Kd [3, 9] [µM] | Amplitude (% change) [4] | KD (% change) [4] | Amplitude [4] | Kd [4, 10] [µM] | Kd [4, 11] [µM] | Response Amplitude [4] | Amplitude [5] | Kd [5, 12] [µM] | Amplitude (% change) [5] | KD (% change) [5] | Kd [5, 13] [µM] | Response Amplitude [5] | Amplitude (% change) [6] | Compound | Cytotoxicity / cell viability [1] | Chemical instability in solution [2] | other results
 |  |  |  |  |  |  |  |  |  |  |  |  |  |  |  |  |  | Oc1ccc2cc[nH]c2c1 [6-hydroxyindole] | significant cytotoxicity | autooxidation and polymerization in solution | 
saturable binding | 31 + 1 | 2.2 | 31 + 1 | 2.2 | +13% | +186% | 35 + 2 | 6.3 | 6.4 | 35 + 2 (ns) | 32 + 3 | 11 | +3% | +400% | 11 | 32 + 3 (ns) | +39% | Brc1cc2cc[nH]c2cc1Br [5,6-dibromoindole] |  |  | KD (% change) [6]: +627%; Amplitude [6]: 43 + 5; Kd [6, 14]: 16 µM; Kd [6, 15]: 15.6 µM; Response Amplitude [6]: 43 + 5 (ns); Effect on expression of Nurr1 target genes Th and Vmat2 (in words) [7]: does not
 |  |  |  |  |  |  |  |  |  |  |  |  |  |  |  |  |  | Nc1ccc2[nH]ccc2c1 [5-aminoindole] | significant cytotoxicity | autooxidation and polymerization in solution | 
saturable binding | 54 + 4 | 4.5 | 54 + 4 | 4.5 | +19% | +166% | 67 + 9 | 12 | 12 | 67 + 9 (ns) | 47 + 3 | 13 | −13% | +189% | 13.1 | 47 + 3 (ns) | 0% | Clc1cc2cc[nH]c2cc1Cl [5,6-dichloroindole] |  |  | KD (% change) [6]: +304%; Amplitude [6]: 54 + 5; Kd [6, 14]: 18 µM; Kd [6, 15]: 17.9 µM; Response Amplitude [6]: 54 + 5 (ns); Effect on expression of Nurr1 target genes Th and Vmat2 (in words) [7]: does not
 |  |  |  |  |  |  |  |  |  |  |  |  |  |  |  |  |  | Oc1ccc2[nH]ccc2c1 [5-hydroxyindole] | significant cytotoxicity | autooxidation and polymerization in solution | 
 |  |  |  |  |  |  |  |  |  |  |  |  |  |  |  |  |  | Nc1ccc2cc[nH]c2c1 [6-aminoindole] | significant cytotoxicity | autooxidation and polymerization in solution | 
